# Measurements as given in ChEMBL document CHEMBL1201862, “PubChem BioAssay data set” (2004).
#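 Dose response: 5 concentrations. Exposure: 48 h. Format: 96-well plates. Endpoint: linear interpolation; highest concentration if not reached. At the GI50, growth is halved.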 The source made the active and inactive calls. Rule as the data show it: active = GI50 up to about 1.1 µM and inactive = higher.
# Legend:
# Assay in all cases: NCI-60 cell line screen, 48 h
# MDA-MB-231 = tested on: MDA-MB-231
# Malme-3M = tested on: Malme-3M
# NCI-H226 = tested on: NCI-H226
# UACC-257 = tested on: UACC-257
# UACC-62 = tested on: UACC-62
# SNB-75 = tested on: SNB-75
# MOLT-4 = tested on: MOLT-4
# NCI/ADR-RES = tested on: NCI/ADR-RES
# K562 = tested on: K562
# MDA-N = tested on: MDA-N
# PC-3 = tested on: PC-3
# NCI-H23 = tested on: NCI-H23
# MCF7 = tested on: MCF7
# MDA-MB-435 = tested on: MDA-MB-435
# DU-145 = tested on: DU-145
# A498 = tested on: A498
SMILES,GI50 (MDA-MB-231),GI50 (Malme-3M),GI50 (NCI-H226),GI50 (UACC-257),GI50 (UACC-62),GI50 (SNB-75),GI50 (MOLT-4),GI50 (NCI/ADR-RES),GI50 (K562),GI50 (MDA-N),GI50 (PC-3),GI50 (NCI-H23),GI50 (MCF7),GI50 (MDA-MB-435),GI50 (DU-145),GI50 (A498)
Oc1cc(Cl)cc2cc(Br)cnc12,2.56 µM (inactive),2.23 µM (inactive),22.6 µM (inactive),2.63 µM (inactive),6.27 µM (inactive),13.6 µM (inactive),2.04 µM (inactive),2.06 µM (inactive),1.69 µM (inactive),2.3 µM (inactive),2.57 µM (inactive),4.39 µM (inactive),3.1 µM (inactive),4.65 µM (inactive),5.14 µM (inactive),27.7 µM (inactive)
COC(=O)C1(F)C(=O)NC(=O)NC1O (stereo not drawn),> 100 µM (inactive),> 100 µM (inactive),> 100 µM (inactive),> 100 µM (inactive),> 100 µM (inactive),> 65 µM (inactive),31.8 µM (inactive),> 100 µM (inactive),> 84.5 µM (inactive),> 100 µM (inactive),50.8 µM (inactive),> 100 µM (inactive),10.7 µM (inactive),> 100 µM (inactive),> 100 µM (inactive),> 100 µM (inactive)
COc1ccc(C2c3cc4c(cc3OC(N3CCOCC3)C2C)OCO4)cc1OC (stereo not drawn),16.2 µM (inactive),11.1 µM (inactive),6.9 µM (inactive),16.7 µM (inactive),5.48 µM (inactive),2.99 µM (inactive),4.48 µM (inactive),3.61 µM (inactive),4.31 µM (inactive),1.86 µM (inactive),6.43 µM (inactive),20.4 µM (inactive),4.97 µM (inactive),2.04 µM (inactive),9.42 µM (inactive),6.46 µM (inactive)
CC/C=C/C[C@H](O[Si](C)(C)C(C)(C)C)[C@H]1C[C@H]2O[C@H]([C@@H](O)C#C[Si](C)(C)C)C[C@H]2O1,14.9 µM (inactive),11.9 µM (inactive),6.68 µM (inactive),9.75 µM (inactive),17.7 µM (inactive),16.3 µM (inactive),12.6 µM (inactive),13.3 µM (inactive),13.9 µM (inactive),12.2 µM (inactive),12.9 µM (inactive),12 µM (inactive),6.92 µM (inactive),12.3 µM (inactive),14.7 µM (inactive),17.9 µM (inactive)
CC(CO)(CO)N1C(=O)C2C3C=CC(C3)C2C1=O (stereo not drawn),> 100 µM (inactive),> 100 µM (inactive),> 100 µM (inactive),> 100 µM (inactive),> 100 µM (inactive),> 100 µM (inactive),> 100 µM (inactive),> 100 µM (inactive),> 100 µM (inactive),> 100 µM (inactive),> 100 µM (inactive),> 100 µM (inactive),> 100 µM (inactive),> 100 µM (inactive),> 100 µM (inactive),> 100 µM (inactive)
CSc1nc2c(c(=O)n1C)N=C(c1ccc(Cl)cc1)CC(c1ccccc1)N2 (stereo not drawn),11.9 µM (inactive),16.1 µM (inactive),17.6 µM (inactive),22.6 µM (inactive),16.1 µM (inactive),13.3 µM (inactive),14.1 µM (inactive),17.4 µM (inactive),20.7 µM (inactive),15.7 µM (inactive),24.3 µM (inactive),24.1 µM (inactive),14.2 µM (inactive),34.4 µM (inactive),24.7 µM (inactive),33 µM (inactive)
C[C@]12CC[C@H](OC(=O)Cc3ccc(N(CCCl)CCCl)cc3)CC1=CC[C@@H]1[C@@H]2CC[C@]2(C)C(=O)CC[C@@H]12,> 100 µM (inactive),> 100 µM (inactive),> 100 µM (inactive),> 100 µM (inactive),–,> 100 µM (inactive),> 100 µM (inactive),> 100 µM (inactive),> 100 µM (inactive),> 100 µM (inactive),> 100 µM (inactive),> 100 µM (inactive),> 100 µM (inactive),> 100 µM (inactive),> 100 µM (inactive),> 100 µM (inactive)
O=C(O)CNC(=O)c1cccc2c(=O)c3ccccc3[nH]c12,> 100 µM (inactive),> 100 µM (inactive),> 100 µM (inactive),> 100 µM (inactive),99.8 µM (inactive),84.7 µM (inactive),> 100 µM (inactive),> 100 µM (inactive),> 100 µM (inactive),> 100 µM (inactive),> 100 µM (inactive),> 100 µM (inactive),> 100 µM (inactive),> 100 µM (inactive),> 100 µM (inactive),> 100 µM (inactive)
O=C(/C=C/c1ccccc1)Oc1cccc(O)c1,47.9 µM (inactive),19.5 µM (inactive),> 100 µM (inactive),> 100 µM (inactive),> 100 µM (inactive),65 µM (inactive),6.03 µM (inactive),42.8 µM (inactive),–,57.8 µM (inactive),> 100 µM (inactive),63.8 µM (inactive),38.7 µM (inactive),> 100 µM (inactive),80.7 µM (inactive),> 100 µM (inactive)
CC(C)=C[C@@H]1C[C@H](C)[C@H]2CC[C@H](C)[C@H]3C(=O)C(O)=C(C)C(=O)[C@]123,> 100 µM (inactive),> 100 µM (inactive),87.3 µM (inactive),> 100 µM (inactive),> 100 µM (inactive),> 100 µM (inactive),> 100 µM (inactive),> 100 µM (inactive),> 100 µM (inactive),> 100 µM (inactive),27.4 µM (inactive),> 100 µM (inactive),> 100 µM (inactive),> 100 µM (inactive),> 100 µM (inactive),> 100 µM (inactive)
C=C(Cl)C(Br)(CCl)CCC(Br)C(C)(C)Cl (stereo not drawn),1.64 µM (inactive),2.83 µM (inactive),5.32 µM (inactive),2.67 µM (inactive),3.37 µM (inactive),3.6 µM (inactive),1.6 µM (inactive),3.17 µM (inactive),2.44 µM (inactive),3.49 µM (inactive),6.12 µM (inactive),3.75 µM (inactive),3.38 µM (inactive),3.57 µM (inactive),13.7 µM (inactive),17.7 µM (inactive)
C/C(CC(O)(C(F)(F)F)C(F)(F)F)=N/Nc1ccc([N+](=O)[O-])cc1[N+](=O)[O-],2.28 µM (inactive),2.11 µM (inactive),2.06 µM (inactive),2.87 µM (inactive),3.02 µM (inactive),2.69 µM (inactive),4.4 µM (inactive),2.85 µM (inactive),2.44 µM (inactive),4.46 µM (inactive),2.78 µM (inactive),2.46 µM (inactive),2.97 µM (inactive),3.15 µM (inactive),2.29 µM (inactive),2.39 µM (inactive)
Nc1nc(Cl)cc(NCC2(CO)CCC(OCc3ccccc3)C2)n1 (stereo not drawn),7.45 µM (inactive),20.8 µM (inactive),14.8 µM (inactive),12.8 µM (inactive),21.4 µM (inactive),12.4 µM (inactive),4.99 µM (inactive),3.81 µM (inactive),7.26 µM (inactive),16.8 µM (inactive),8.24 µM (inactive),0.641 µM (active),1.59 µM (inactive),14.8 µM (inactive),27.7 µM (inactive),8.24 µM (inactive)
Cc1nc2ccccc2cc1C[N+]12CN3CN(CN(C3)C1)C2,16.4 µM (inactive),17.3 µM (inactive),23.6 µM (inactive),18.4 µM (inactive),17.2 µM (inactive),17.9 µM (inactive),34 µM (inactive),22.4 µM (inactive),29.2 µM (inactive),21.8 µM (inactive),10.8 µM (inactive),17.5 µM (inactive),4.29 µM (inactive),22.2 µM (inactive),26.2 µM (inactive),22.8 µM (inactive)
CCCCCCOP(=O)(OCCCCCC)C(NC(=O)OCC)(C(F)(F)F)C(F)(F)F,24.3 µM (inactive),34.4 µM (inactive),24.9 µM (inactive),–,41.6 µM (inactive),64.3 µM (inactive),> 100 µM (inactive),28.8 µM (inactive),39.4 µM (inactive),36 µM (inactive),33.3 µM (inactive),–,37.2 µM (inactive),36.6 µM (inactive),93.1 µM (inactive),> 100 µM (inactive)
C=C(C)COc1ccc2c(c1)CCC1C2CCC2(C)C(=O)/C(=N/O)CC12 (stereo not drawn),1.66 µM (inactive),13.8 µM (inactive),9.31 µM (inactive),11.3 µM (inactive),14.9 µM (inactive),1.9 µM (inactive),1.76 µM (inactive),4.27 µM (inactive),2.73 µM (inactive),3.47 µM (inactive),2.6 µM (inactive),3.21 µM (inactive),2.9 µM (inactive),2.27 µM (inactive),2.12 µM (inactive),11.1 µM (inactive)
COc1ccc(-c2oc3cc(-c4cc5oc(-c6ccc(OC)cc6)c(-c6ccc(OC)cc6)c5cc4OC)c(OC)cc3c2-c2ccc(OC)cc2)cc1,> 100 µM (inactive),> 100 µM (inactive),> 100 µM (inactive),> 100 µM (inactive),> 100 µM (inactive),> 100 µM (inactive),> 100 µM (inactive),> 100 µM (inactive),> 100 µM (inactive),> 100 µM (inactive),> 100 µM (inactive),> 100 µM (inactive),> 100 µM (inactive),> 100 µM (inactive),> 100 µM (inactive),> 100 µM (inactive)
